Consider two molecules from US10092622B2 (M[…] University Research and Technology Corporation, priority 2009, dated 2018).

Entries after “also recorded” stand apart in the source; their conditions may differ. Read-outs that look alike come from different tables or passages of the source. Numbered stars: 1 amine (or outer) side, 2 acyl side, 3 side chain; on linkers, the order of the positions; unused ones are H or OH. Bridge positions count the residues as written; N and C are the ends. Square brackets hold non-standard residues; d marks the D form. Peptide text beside a SMILES is read from it. * marks the point of attachment. hTyr(3S-OH,4S-OH,3'-OSO3H) = N[C@H](C(=O)O)[C@H](O)[C@@H](O)c1ccc(O)c(OS(=O)(=O)O)c1; Orn(4R-OH,5R-OH) = O=C([C@H](C[C@@H](O)[C@@H](O)N[*:3])N[*:1])[*:2]; Pro(3S-OH,4S-Me) = C[C@H]1CN[C@H](C(=O)O)[C@H]1O; X1 = CCCCCOc1ccc(-c2cc(-c3ccc(C(=O)*)cc3)no2)cc1; Gln(3R-OH) = NC(=O)C[C@@H](O)[C@H](N)C(=O)O; Hyp = O=C(O)[C@@H]1C[C@@H](O)CN1

One test concerns A. fumigatus. The note with it: cited from earlier work.
The next test deals with Rhizoctonia solani. Description: Light microscopy of hyphae grown at sub-inhibitory concentration. The format is cell-based. The following applies: R. solani; subinhibitory concentration 0.5 μg/mL; versus control. The protocol:
(§1) Microscopy. […] For each of the fungi, the hyphae or arthrospores with an observed MIC50 at 48 hours growing next to the MIC well were used for preparation of light microscopy and transmission electron microscopy (TEM) slides. For light microscopy, lactophenol cotton blue solution (Sigma) was used as a positive stain and mounting medium for the slide. For TEM, the G. candidum samples were fixed at 4° C. with 2.5% glutaraldehyde in 0.1 M phosphate buffer (pH 7.2). After being rinsed with the buffer, specimens were post-fixed with 2% osmium tetroxide in the phosphate buffer. The specimens washed with the phosphate butler were dehydrated in graded ethanol serials (50-100%), and then embedded in Spurr's resin. Thin sections generated with a Reichert-Jung Ultracut E Ultramicrotome (60-90 nm) were double stained with uranyl acetate and lead citrate as described previously. The grids were observed under a transmission electron microscope Jeol JEM-100CX11 (Joel Ltd., Tokyo, Japan). Images were taken at magnifications between 5,000 and 8,000.

In test [1] the test system is Geotrichum candidum. Description: Transmission electron microscopy of arthrospores. The format is cell-based. The following applies: G. candidum; subinhibitory 4 μg/mL for 48 hours; TEM; versus untreated. As for the experimental part:
as §1

Test [2] deals with Geotrichum candidum. Description: Light microscopy of arthrospores. The format is cell-based. The note with it: G. candidum; 4 μg/mL for 48 hours; versus untreated. As for the experimental part:
as §1

For test [3], the system named is Fusarium oxysporum f. sp. lycopersici ATCC9848. Description: Antifungal susceptibility testing, agar micro-dilution. The following applies: 48 hours. The format is cell-based. The source says: (§2) Microbial organisms. Fungal strains were obtained from collections at Mississippi State University's Veterinary Medical Research and Diagnostic Laboratory System and Entomology and Plant Pathology Department or were purchased from the American Type Culture Collection (Manassas, Va.). Fungal isolates used in this study were Alternaria alternata, Aspergillus fumigatus, Aspergillus niger; Fusarium oxysporum f. sp. lycopersici ATCC9848, Geotrichum candidum F-260, Macrophomina phaseolina 61, Microsporum gypseum, Penicillium sp., Rhizoctonia solani MSCOT-I, and Trichophyton mentagrophytes. In addition, two Pythium species were tested: Pythium spinosum 472-04 and Pythium ultimum 671-04.
(§3) Antifungal susceptibility testing. Minimum inhibitory concentrations were determined by agar micro-dilution testing. […] One (1) mL of Sabouraud dextrose agar Difco™ (BD Diagnostics, Franklin Lakes, N.J.) was added to each well. Once the agar solidified, the plates were stored inverted at 4° C. until used. Fungal cultures were grown on 100×15 mm Sabouraud dextrose agar plates (Thermo Fisher Scientific Remel Products, Lenexa, Kans.) at 22° C. for 7 days. A circular punch, containing a 1 cm in diameter plug of the fungi from the agar plate, was made from an area of the plate having a confluent growth of the fungi. The plug was place in 3 mL of PBS and ground with approximately 30 strokes of a Ten-brock homogenizer. Five (5) μL of the supernatant was placed in the center of each well and allowed to dry before incubating the microtiter plates at 22° C. Minimum inhibitory concentrations were measured at 48 hours for each species, except for Trichophyton mentagrophytes, which was measured at 72 hours. MICS were determined as the lowest concentration that inhibited visible fungal growth.

For test [4], the system named is Trichophyton mentagrophytes. The description is as above. The format is cell-based. The note with it: 72 hours.
Text: as §2, §3

Another test concerns Pythium ultimum 671-04. Described as above. The note with it: P. ultimum; 48 hours. The format is cell-based.
Text: as §2, §3

The subject of the next test is Aspergillus fumigatus. The description is as above. The following applies: A. fumigatus; 48 hours. The format is cell-based.
Text: as §2, §3

A further test has as its system Microsporum gypseum. The test is described as above. The note with it: 48 hours. The format is cell-based.
Text: as §2, §3

A further test deals with Aspergillus niger. Described as above. The format is cell-based. The note with it: A. niger; 48 hours.
Text: as §2, §3

The subject of test [5] is Rhizoctonia solani MSCOT-I. Described as above. The format is cell-based. The note with it: R. solani.
Text: as §2, §3

Test [6] relates to Macrophomina phaseolina 61. Described as above. The format is cell-based. The note with it: 48 hours.
Text: as §2, §3

For another test, the system named is Penicillium sp. The test is described as above. The format is cell-based. The following applies: 48 hours.
Text: as §2, §3

A further test deals with Pythium spinosum 472-04. Described as above. The following applies: P. spinosum; 48 hours. The format is cell-based.
Text: as §2, §3

The subject of test [7] is Geotrichum candidum F-260. The test is described as above. The format is cell-based. The following applies: G. candidum; 48 hours.
Text: as §2, §3

The subject of another test is Alternaria alternata. Described as above. The format is cell-based. The following applies: 48 hours.
Text: as §2, §3

For `CCCCCOc1ccc(-c2cc(-c3ccc(C(=O)N[C@H]4C[C@@H](O)[C@@H](O)NC(=O)[C@@H]5[C@@H](O)[C@@H](C)CN5C(=O)[C@H]([C@H](O)CC(N)=O)NC(=O)[C@H]([C@H](O)[C@@H](O)c5ccc(O)c(OS(=O)(=O)O)c5)NC(=O)[C@@H]5C[C@@H](O)CN5C(=O)[C@H]([C@@H](C)O)NC4=O)cc3)no2)cc1` [micafungin] (X1-[Orn(4R-OH,5R-OH)]T[Hyp][hTyr(3S-OH,4S-OH,3'-OSO3H)][Gln(3R-OH)][Pro(3S-OH,4S-Me)]; lactam 1-C), the hyphal morphology entry was “hyphal burst” in the test on A. fumigatus (inhibitory concentrations); “undulated membranes and deformed hyphae tips” in the test on A. fumigatus (sub-inhibitory concentrations).

One may read the MIC as the smallest concentration in the dilution series that meets the test's criterion for growth inhibition. occidiofungin: the hyphal morphology entry in the test on Rhizoctonia solani is given as “significant hyphal morphological changes”. Moreover, the cell wall thickness result in the test on Geotrichum candidum [1] is listed as “drastically reduced; also recorded: dramatic decrease in cell wall thickness”. In addition, the arthrospore/cell morphology entry with Geotrichum candidum [2] is given as “significant swelling of the cells; also recorded: amorphous shapes due to cellular swelling”. Further, the MIC in test [3] is more than 32 µg/mL; in [4] it was 4 µg/mL; in the test on Pythium ultimum 671-04 it was 2 µg/mL; in the test on Aspergillus fumigatus, 8 µg/mL; in the test with Microsporum gypseum, 4 µg/mL; against Aspergillus niger, 4 µg/mL. Moreover, the MIC in test [6] worked out at 2 µg/mL; in the test with Penicillium sp. it was 32 µg/mL; against Pythium spinosum 472-04, 1 µg/mL; in [7], 8 µg/mL; in the test on Alternaria alternata, 8 µg/mL. Also, the “concentration with significant growth inhibition” value in test [3] stood at 16 µg/mL. Also, the reduction in growth in test [5] (0.5 μg/mL occidiofungin) is more than 50%. The “concentration with significant growth inhibition (MIC50, >50% growth inhibition)” value in test [5] (48 hours) amounted to 0.5 µg/mL. Besides, the “concentration with remarkable growth inhibition (MIC50)” value in test [7] is 4 µg/mL.
